Consider 2 molecules from article PMC12858405, “Ideal efficacy photoswitching for chromocontrol of TRPC4/5 channel functions in live tissues” (Nature Chemical Biology, 2026).

This test has as its target T1, TRPC5-SYFP2 (Homo sapiens, UniProt Q9UL62).
T1 construct: expressed in transfected cells; host or cells: HEK 293 (ATCC CRL 1573), transiently transfected (jetPRIME)
T1 sequence (Q9UL62 1-973): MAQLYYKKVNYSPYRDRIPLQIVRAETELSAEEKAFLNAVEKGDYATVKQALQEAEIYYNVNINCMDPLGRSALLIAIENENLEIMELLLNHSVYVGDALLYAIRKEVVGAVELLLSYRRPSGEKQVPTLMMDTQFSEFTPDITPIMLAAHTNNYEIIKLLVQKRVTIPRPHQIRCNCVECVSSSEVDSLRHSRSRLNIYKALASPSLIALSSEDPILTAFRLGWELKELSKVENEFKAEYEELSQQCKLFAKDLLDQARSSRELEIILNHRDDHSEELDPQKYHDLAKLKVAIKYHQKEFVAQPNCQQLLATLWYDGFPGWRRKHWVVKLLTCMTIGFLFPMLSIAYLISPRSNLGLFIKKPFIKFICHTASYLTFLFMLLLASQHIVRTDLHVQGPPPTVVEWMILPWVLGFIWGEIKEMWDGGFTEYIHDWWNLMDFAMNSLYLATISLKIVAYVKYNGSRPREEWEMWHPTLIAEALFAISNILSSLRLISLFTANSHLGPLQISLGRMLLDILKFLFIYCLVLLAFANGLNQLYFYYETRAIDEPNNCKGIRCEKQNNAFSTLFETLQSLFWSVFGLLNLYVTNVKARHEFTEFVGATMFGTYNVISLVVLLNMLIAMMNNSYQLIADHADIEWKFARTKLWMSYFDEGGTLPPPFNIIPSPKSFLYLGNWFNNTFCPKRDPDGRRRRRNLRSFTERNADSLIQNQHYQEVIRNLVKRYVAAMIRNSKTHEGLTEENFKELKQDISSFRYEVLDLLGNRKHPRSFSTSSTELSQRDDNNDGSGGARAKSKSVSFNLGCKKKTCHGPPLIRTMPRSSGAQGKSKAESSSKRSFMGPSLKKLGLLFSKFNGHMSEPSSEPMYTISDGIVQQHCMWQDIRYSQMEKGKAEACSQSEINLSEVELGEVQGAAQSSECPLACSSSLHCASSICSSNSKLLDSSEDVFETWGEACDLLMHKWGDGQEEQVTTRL
The experiment in a line: Fura-2 [Ca2+]i recordings, HEK 293 transiently expressing TRPC5-SYFP2. The format is cell-based. Conditions: 10-1000 nM; compound plate illuminated at 380 nm; EA 100 nM as maximum. An excerpt:
Müller, Niemeyer, et al., Schaefer & Thorn-Seshold 2025: Ideal Efficacy Photoswitching of TRPC4/5 in Tissue […]
1.4.4 Differences and selectivity between TRPC5 and TRPC4?
AM237 activates TRPC5 but inhibits EA mediated activation of TRPC4; Pico145 inhibits both TRPC4 and TRPC5. Thus, somewhat naively, it could be argued that it is the para substituent here which affects both the efficacy mode and the selectivity for TRPC4 and/or TRPC5.
Intriguingly, Z-AzPico activates TRPC4 and TRPC5 with low nanomolar potency whereas Z-AzHC only activates TRPC5 but not TRPC4. Therefore, the meta substituent is now responsible for the selectivity in this case. The cryo-EM structures of Pico145 and HC-070 in complex with TRPC5 indicated the same binding site but the southern phenyl ring bearing the OCF3/Cl group is flipped and pointing in opposite directions.
Z isomers, i.e. Z-buried vs. E-projected. Additionally, both E-AzPico and E-AzHC inhibit EA […]
It is not surprising that both ligands bind to either protein because there is a high sequence similarity among the TRPC family in the identified binding pocket for Pico145 /HC-070, and in the binding region, human TRPC4/5 differ only by a single amino acid (TRPC5: V579, TRPC4: I579). We […]
the result of differences in this residue. […]
Intracellular calcium ([Ca2+]i) was measured using the ratiometric Ca2+ dye Fura-2. […]

Turning to `Cn1c(=O)n(CCCO)c(=O)c2c1nc(Oc1ccc(Cl)c(OC(F)(F)F)c1)n2Cc1ccc(Cl)cc1` [AM237, reference compound], the “Effect on [Ca2+]i, TRPC5” value is recorded as “partial agonists”.

For `Cn1c(=O)n(CCCO)c(=O)c2c1nc(Oc1ccc(/N=N\c3ccccc3)c(Cl)c1)n2Cc1ccc(Cl)cc1` [Z*-AzHC], the “Effect on [Ca2+]i, TRPC5” value is recorded as “partial agonists”.
